Tests used:
Substance-P receptor [1] = target: Substance-P receptor (Homo sapiens, UniProt P25103); test: Binding affinity in membrane preparations containing recombinant human Tachykinin receptor 1 in CHO cells by using [3H]-Sar SP as the radioligand.; format: cell membranes
Substance-K receptor [2] = target: T1, Substance-K receptor (Homo sapiens, UniProt P21452); test: Binding affinity in membrane preparations containing recombinant human Tachykinin receptor 2 in CHO cells by using [3H]NKA as the radioligand.; format: cell membranes
T1 sequence (P21452 whole entry): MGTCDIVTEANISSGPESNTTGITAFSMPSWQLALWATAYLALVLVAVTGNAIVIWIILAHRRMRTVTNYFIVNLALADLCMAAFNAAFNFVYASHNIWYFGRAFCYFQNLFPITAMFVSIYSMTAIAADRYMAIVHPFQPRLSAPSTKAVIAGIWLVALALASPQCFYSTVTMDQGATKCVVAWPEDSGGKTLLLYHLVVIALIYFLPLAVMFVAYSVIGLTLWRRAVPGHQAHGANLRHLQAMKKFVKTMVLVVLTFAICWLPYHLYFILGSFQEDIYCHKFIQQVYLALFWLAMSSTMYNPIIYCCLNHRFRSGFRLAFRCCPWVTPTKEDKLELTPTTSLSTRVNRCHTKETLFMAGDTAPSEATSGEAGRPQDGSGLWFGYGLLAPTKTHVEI

Substance-P receptor [3] = target: Substance-P receptor (Cavia porcellus, UniProt P30547); test: Inhibition of the SP-induced NK1-mediated enhancement of the EFS-induced sympathetic neurogenic contractions of gpvd, used as a measure of antagonist activity.; format: functional; conditions: read-out: pA2 (converted)
Chain of Substance-P receptor (Cavia porcellus, UniProt P30547) (P30547 whole entry): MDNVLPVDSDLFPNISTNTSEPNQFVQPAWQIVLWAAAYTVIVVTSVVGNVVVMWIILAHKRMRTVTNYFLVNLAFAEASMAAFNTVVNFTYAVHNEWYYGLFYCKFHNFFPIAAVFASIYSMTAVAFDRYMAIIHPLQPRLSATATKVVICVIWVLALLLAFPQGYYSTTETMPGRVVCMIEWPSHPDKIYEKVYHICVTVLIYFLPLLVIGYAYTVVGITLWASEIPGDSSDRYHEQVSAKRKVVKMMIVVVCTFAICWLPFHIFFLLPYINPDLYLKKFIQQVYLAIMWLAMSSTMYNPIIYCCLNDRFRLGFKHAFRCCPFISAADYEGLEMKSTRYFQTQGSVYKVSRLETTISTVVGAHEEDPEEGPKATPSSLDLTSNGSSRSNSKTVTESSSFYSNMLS

Substance-K receptor [4] = target: T2, Substance-K receptor (Mesocricetus auratus, UniProt P51144); test: Inhibition of NKA-induced airway contraction of isolated hamster trachea (ht) was used as a measure of NK2-receptor antagonist activity.; format: functional, tissue-based; conditions: read-out: pA2 (converted)
T2 sequence (P51144 whole entry): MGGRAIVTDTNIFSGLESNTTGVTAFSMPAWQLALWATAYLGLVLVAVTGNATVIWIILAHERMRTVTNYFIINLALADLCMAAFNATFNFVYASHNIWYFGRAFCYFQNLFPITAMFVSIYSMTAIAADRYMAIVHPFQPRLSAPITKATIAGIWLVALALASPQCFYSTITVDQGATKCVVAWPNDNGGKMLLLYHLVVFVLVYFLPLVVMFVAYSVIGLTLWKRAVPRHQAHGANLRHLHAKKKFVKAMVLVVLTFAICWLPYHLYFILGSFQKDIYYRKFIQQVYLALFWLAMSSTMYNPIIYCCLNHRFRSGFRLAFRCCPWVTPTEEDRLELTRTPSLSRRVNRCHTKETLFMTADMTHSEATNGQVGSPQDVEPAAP

Chain of Substance-P receptor (Homo sapiens, UniProt P25103) (P25103 whole entry): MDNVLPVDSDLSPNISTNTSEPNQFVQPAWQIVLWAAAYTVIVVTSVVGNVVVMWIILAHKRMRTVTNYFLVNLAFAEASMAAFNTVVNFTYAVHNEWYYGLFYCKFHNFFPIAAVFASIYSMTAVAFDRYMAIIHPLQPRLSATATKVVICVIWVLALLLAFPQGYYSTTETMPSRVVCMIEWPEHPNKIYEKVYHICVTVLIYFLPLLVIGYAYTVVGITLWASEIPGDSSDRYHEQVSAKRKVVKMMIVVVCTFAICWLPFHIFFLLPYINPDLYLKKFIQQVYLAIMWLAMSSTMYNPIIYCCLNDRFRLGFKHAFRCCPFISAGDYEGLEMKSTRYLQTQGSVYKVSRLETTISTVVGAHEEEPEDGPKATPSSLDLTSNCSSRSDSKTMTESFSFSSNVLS

Ki (Substance-P receptor [1]) [nM] | Ki (Substance-K receptor [2]) [nM] | Kb (Substance-P receptor [3]) [nM] | Kb (Substance-K receptor [4]) [nM] | Structure (SMILES)
135 | > 1000 | – | – | CN1CCN(C(=O)CNC2CCN(Cc3ccccc3)CC2)C(c2ccccc2)C1 (centres undefined)
136 | > 1000 | – | – | O=C(Cc1cc(C(F)(F)F)cc(C(F)(F)F)c1)N1CCN(C(=O)CNC2CCN(Cc3ccccc3)CC2)C(c2ccccc2)C1 (centres undefined)
28 | > 1000 | – | – | O=C(CN1CCN(Cc2ccccc2)CC1)N1CCN(Cc2cc(C(F)(F)F)cc(C(F)(F)F)c2)CC1c1ccc(Cl)c(Cl)c1 (centres undefined)
48 | > 1000 | – | – | CC(=O)NC1(c2ccccc2)CCN(CC(=O)N2CCN(Cc3cc(C(F)(F)F)cc(C(F)(F)F)c3)CC2c2ccccc2)CC1 (centres undefined)
7.7 | 14 | – | – | O=C(c1cc(Cl)cc(Cl)c1)N1CCN(C(=O)CNC2CCN(Cc3ccccc3)CC2)C(c2ccc(Cl)c(Cl)c2)C1 (centres undefined)
143 | 16 | – | – | Cc1cc(C)cc(C(=O)N2CCN(C(=O)CNC3CCN(C(=O)[C@H](N)c4ccccc4)CC3)[C@H](c3ccc(Cl)c(Cl)c3)C2)c1
11 | 1.1 | – | – | Cc1cc(C)cc(C(=O)N2CCN(C(=O)CNC3CCN(C(=O)[C@H](N)Cc4ccccc4)CC3)[C@H](c3ccc(Cl)c(Cl)c3)C2)c1
7.1 | 27 | – | – | COc1cc(OC)cc(C(=O)N2CCN(C(=O)CNC3CCN(Cc4ccccc4)CC3)C(c3ccc(Cl)c(Cl)c3)C2)c1 (centres undefined)
3.2 | 14 | – | – | O=C(c1cc(Br)cc(Br)c1)N1CCN(C(=O)CNC2CCN(Cc3ccccc3)CC2)C(c2ccc(Cl)c(Cl)c2)C1 (centres undefined)
> 1000 | > 1000 | – | – | COc1cc(CC(=O)N2CCN(C(=O)CNC3CCN(Cc4ccccc4)CC3)C(c3ccc(Cl)c(Cl)c3)C2)cc(OC)c1OC (centres undefined)
13 | > 1000 | – | – | O=C(CN1CCC(O)(c2ccccc2)CC1)N1CCN(Cc2cc(C(F)(F)F)cc(C(F)(F)F)c2)CC1c1ccccc1 (centres undefined)
92 | 3 | – | – | Cc1cc(C)cc(C(=O)N2CCN(C(=O)CNC3CCN(Cc4ncc[nH]4)CC3)[C@H](c3ccc(Cl)c(Cl)c3)C2)c1
110 | > 1000 | – | – | O=C(CN1CCC(Cc2ccccc2)CC1)N1CCN(Cc2cc(C(F)(F)F)cc(C(F)(F)F)c2)CC1c1ccc(Cl)c(Cl)c1 (centres undefined)
112 | 124 | – | – | COc1cc(C(=O)N2CCN(C(=O)CNC3CCN(Cc4ccccc4)CC3)C(c3ccc(Cl)c(Cl)c3)C2)cc(OC)c1OC (centres undefined)
– | – | 6.31 | – | Cc1cc(C)cc(C(=O)N2CCN(C(=O)CNC3CCN(Cc4ccccc4)CC3)[C@@H](c3ccc(Cl)c(Cl)c3)C2)c1
35 | 1.3 | – | – | Cc1cc(C)cc(C(=O)N2CCN(C(=O)CNC3CCN(Cc4cc[nH]c4)CC3)[C@H](c3ccc(Cl)c(Cl)c3)C2)c1
– | – | 79.4 | – | O=C(c1cc(C(F)(F)F)cc(C(F)(F)F)c1)N1CCN(C(=O)CNC2CCN(Cc3ccccc3)CC2)C(c2ccc(Cl)c(Cl)c2)C1 (centres undefined)

Ki (Substance-P receptor [1]) [nM] | Ki (Substance-K receptor [2]) [nM] | Kb (Substance-P receptor [3]) [nM] | Kb (Substance-K receptor [4]) [nM] | Structure (SMILES)
32 | 7 | – | – | Cc1cc(C)cc(C(=O)N2CCN(C(=O)CNC3CCN(C(=O)[C@H](N)Cc4ccc(O)cc4)CC3)[C@H](c3ccc(Cl)c(Cl)c3)C2)c1
42 | 1.1 | – | – | Cc1cc(C)cc(C(=O)N2CCN(C(=O)CNC3CCN(C(=O)[C@@H](N)c4ccccc4)CC3)[C@H](c3ccc(Cl)c(Cl)c3)C2)c1
215 | 20 | – | – | Cc1cc(C)cc(C(=O)N2CCN(C(=O)CNC3CCNCC3)[C@H](c3ccc(Cl)c(Cl)c3)C2)c1
30 | 175 | – | – | O=C(CNC1CCN(Cc2ccccc2)CC1)N1CCN(Cc2cc(C(F)(F)F)cc(C(F)(F)F)c2)CC1c1ccc(Cl)c(Cl)c1 (centres undefined)
37 | > 1000 | – | – | O=C(CN1CCC(Cc2ccccc2)CC1)N1CCN(Cc2cc(C(F)(F)F)cc(C(F)(F)F)c2)CC1c1ccccc1 (centres undefined)
148 | > 1000 | – | – | CC(=O)NC1(c2ccccc2)CCN(CC(=O)N2CCN(Cc3cc(C(F)(F)F)cc(C(F)(F)F)c3)CC2c2ccc(Cl)c(Cl)c2)CC1 (centres undefined)
52 | 0.9 | – | – | CC(=O)Nc1nc(CN2CCC(NCC(=O)N3CCN(C(=O)c4cc(C)cc(C)c4)C[C@H]3c3ccc(Cl)c(Cl)c3)CC2)cs1
15 | 1.3 | – | – | CC(=O)Nc1ccc(CN2CCC(NCC(=O)N3CCN(C(=O)c4cc(C)cc(C)c4)C[C@H]3c3ccc(Cl)c(Cl)c3)CC2)cc1
21 | 3.2 | – | – | Cc1cc(C)cc(C(=O)N2CCN(C(=O)CNC3CCN(C(=O)[C@@H](N)Cc4ccccc4)CC3)[C@H](c3ccc(Cl)c(Cl)c3)C2)c1
> 1000 | > 1000 | – | – | O=C(c1cc(O)cc(O)c1)N1CCN(C(=O)CNC2CCN(Cc3ccccc3)CC2)C(c2ccc(Cl)c(Cl)c2)C1 (centres undefined)
48 | > 1000 | – | – | O=C(CN1CCN(Cc2ccccc2)CC1)N1CCN(Cc2cc(C(F)(F)F)cc(C(F)(F)F)c2)CC1c1ccccc1 (centres undefined)
70 | 28 | – | – | Cc1cc(C)cc(C(=O)N2CCN(C(=O)CNC3CCN(C(=O)[C@H](N)Cc4c[nH]c5ccccc45)CC3)[C@H](c3ccc(Cl)c(Cl)c3)C2)c1
– | – | 316 | 316 | Cc1cc(C)cc(C(=O)N2CCN(C(=O)CNC3CCN(Cc4ccccc4)CC3)C(c3ccc(Cl)c(Cl)c3)C2)c1 (centres undefined)
23 | 22 | – | – | O=C(c1cc(F)cc(F)c1)N1CCN(C(=O)CNC2CCN(Cc3ccccc3)CC2)C(c2ccc(Cl)c(Cl)c2)C1 (centres undefined)
32 | > 1000 | – | – | O=C(CN1CCC(O)(c2ccccc2)CC1)N1CCN(Cc2cc(C(F)(F)F)cc(C(F)(F)F)c2)CC1c1ccc(Cl)c(Cl)c1 (centres undefined)
17 | 300 | – | – | O=C(CNC1CCN(Cc2ccccc2)CC1)N1CCN(Cc2cc(C(F)(F)F)cc(C(F)(F)F)c2)CC1c1ccccc1 (centres undefined)
